Test results from PubChem BioAssay AID248 (DTP/NCI, 2004).
Inconclusive results and toxic doses are left out. No stated cut-off is given here; in the data, active means T/C of 150% or more; inactive means T/C below 125%.

Tested on: L1210 leukemia ip in BDF1 mice, survival T/C
Assay: NCI In Vivo Anticancer Drug Screen. Data for tumor model L1210 Leukemia (intraperitoneal) in B6D2F1 (BDF1) mice
Conditions: endpoint: mean survival time, higher = longer survival
How it was run: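 Mice bearing the transplanted tumor received compound or vehicle. Survival of the treated group was divided by that of the vehicle-treated control group to give the ratio.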

[1] = dose: 100.0 mg/kg/injection, schedule: Q01DX009 (ip), vehicle: saline with Tween-80
[2] = dose: 100.0 mg/kg/injection, schedule: Q04DX003 (ip), vehicle: saline
[3] = dose: 200.0 mg/kg/injection, schedule: Q01DX009 (ip), vehicle: saline with Tween-80
[4] = dose: 200.0 mg/kg/injection, schedule: Q04DX003 (ip), vehicle: saline
[5] = dose: 400.0 mg/kg/injection, schedule: Q01DX009 (ip), vehicle: saline with Tween-80
[6] = dose: 400.0 mg/kg/injection, schedule: Q04DX003 (ip), vehicle: saline
[7] = dose: 100.0 mg/kg/injection, schedule: Q01DX009 (ip), vehicle: saline
[8] = dose: 200.0 mg/kg/injection, schedule: Q01DX009 (ip), vehicle: saline
[9] = dose: 400.0 mg/kg/injection, schedule: Q01DX009 (ip), vehicle: saline
[10] = dose: 100.0 mg/kg/injection, schedule: Q04DX002 (ip), vehicle: saline with Tween-80
[11] = dose: 200.0 mg/kg/injection, schedule: Q04DX002 (ip), vehicle: saline with Tween-80
[12] = dose: 400.0 mg/kg/injection, schedule: Q04DX002 (ip), vehicle: saline with Tween-80
[13] = dose: 25.0 mg/kg/injection, schedule: Q01DX009 (ip), vehicle: saline with Tween-80

Measured: T/C

O=[N+]([O-])c1ccc(OCc2ccc(Cl)c(S(=O)(=O)F)c2)c(Cl)c1
inactive: dose: 100.0 mg/kg/injection, schedule: Q01DX001 (ip), vehicle: gum acacia 102 % of control | dose: 200.0 mg/kg/injection, schedule: Q01DX001 (ip), vehicle: gum acacia 102 % of control | dose: 400.0 mg/kg/injection, schedule: Q01DX001 (ip), vehicle: gum acacia 98 % of control

O=C(OCCO)c1ccccc1
inactive: [1] 97 % of control | [2] 106 % of control | [3] 97 % of control | [4] 95 % of control | [5] 95 % of control | [6] 97 % of control

CCN(CC)CCCC(Nc1c2ccc(Cl)cc2nc2ccc(OC)cc12)c1ccc(F)cc1 (stereo not drawn)
inactive: dose: 9.0 mg/kg/injection, schedule: Q01DX Z (ip), vehicle: methylcellulose (MC) 86 % of control | dose: 15.0 mg/kg/injection, schedule: Q01DX Z (ip), vehicle: methylcellulose (MC) 95 % of control | dose: 20.0 mg/kg/injection, schedule: Q01DX Z (ip), vehicle: methylcellulose (MC) 86 % of control | dose: 30.0 mg/kg/injection, schedule: Q01DX Z (ip), vehicle: methylcellulose (MC) 89 % of control

O=N[O-].O=N[O-].[Co].[NH-]CCN(CC[NH-])CC[NH-]
inactive: dose: 50.0 mg/kg/injection, schedule: Q01DX001 (ip), vehicle: saline 108 % of control

CSc1cccc(NC(C)=O)c1
inactive: [7] 97 % of control | [2] 93 % of control | [8] 113 % of control | [4] 97 % of control | [9] 104 % of control | [6] 101 % of control

CC(CCC(=O)O)(c1ccc(O)cc1)c1ccc(O)cc1
inactive: dose: 100.0 mg/kg/injection, schedule: Q04DX003 (ip), vehicle: other 99 % of control | dose: 200.0 mg/kg/injection, schedule: Q04DX003 (ip), vehicle: other 105 % of control | dose: 400.0 mg/kg/injection, schedule: Q04DX003 (ip), vehicle: other 97 % of control

O=C(Oc1c(Cl)cc([N+](=O)[O-])cc1[N+](=O)[O-])Sc1ccccc1
inactive: [10] 103 % of control | [11] 100 % of control | [12] 100 % of control

OCC/C=C/CCCO
inactive: [7] 97 % of control | [8] 96 % of control | [9] 94 % of control

COc1cc(Cl)ccc1NC(=O)OCCc1ccccn1
inactive: [7] 97 % of control | [8] 100 % of control | [9] 97 % of control

O=C(c1ccccc1)c1ccc(-c2ccccc2)cc1
inactive: dose: 87.5 mg/kg/injection, schedule: Q04DX003 (ip), vehicle: Klucel (hydroxypropylcellulose) (HPC) 97 % of control | dose: 175.0 mg/kg/injection, schedule: Q04DX003 (ip), vehicle: Klucel (hydroxypropylcellulose) (HPC) 95 % of control | dose: 350.0 mg/kg/injection, schedule: Q04DX003 (ip), vehicle: Klucel (hydroxypropylcellulose) (HPC) 97 % of control

CSc1ccccc1N.[Cl][Cu][Cl]
inactive: dose: 5.0 mg/kg/injection, schedule: Q01DX001 (ip), vehicle: saline 103 % of control | dose: 10.0 mg/kg/injection, schedule: Q01DX001 (ip), vehicle: saline 115 % of control

O=C(CCl)OC1CCCCC1
inactive: [1] 105 % of control | [3] 97 % of control

CCC[CH2][Sn](=[O])[OH]
inactive: [10] 91 % of control | [11] 91 % of control | [12] 94 % of control

[CH3][Sb]1([Cl])[CH2]CCC[CH2]1
inactive: dose: 50.0 mg/kg/injection, schedule: Q04DX003 (ip), vehicle: saline 97 % of control | [2] 104 % of control | [4] 104 % of control

CC#C[P+](Cc1ccccc1)(c1ccccc1)c1ccccc1
inactive: dose: 9.5 mg/kg/injection, schedule: Q01DX001 (ip), vehicle: saline 108 % of control | dose: 19.0 mg/kg/injection, schedule: Q01DX001 (ip), vehicle: saline 117 % of control

c1ccc([CH2][Pb]([c]2ccccc2)([c]2ccccc2)[c]2ccccc2)cc1
inactive: [13] 93 % of control | dose: 50.0 mg/kg/injection, schedule: Q01DX009 (ip), vehicle: saline with Tween-80 94 % of control | [1] 96 % of control | dose: 200.0 mg/kg/injection, schedule: Q01DX001 (ip), vehicle: saline with Tween-80 108 % of control | dose: 400.0 mg/kg/injection, schedule: Q01DX001 (ip), vehicle: saline with Tween-80 97 % of control

CCCOC(C[N+](=O)[O-])C(Cl)(Cl)Cl (stereo not drawn)
inactive: dose: 6.25 mg/kg/injection, schedule: Q01DX009 (ip), vehicle: saline with Tween-80 91 % of control | dose: 12.5 mg/kg/injection, schedule: Q01DX009 (ip), vehicle: saline with Tween-80 96 % of control | [13] 101 % of control | dose: 25.0 mg/kg/injection, schedule: Q04DX003 (ip), vehicle: saline with Tween-80 104 % of control

CC(=O)OC(C(=O)NC(CC(C)C)C(=O)O)c1ccccc1 (stereo not drawn)
inactive: dose: 100.0 mg/kg/injection, schedule: Q01DX001 (ip), vehicle: acetone 98 % of control | dose: 200.0 mg/kg/injection, schedule: Q01DX001 (ip), vehicle: acetone 94 % of control | dose: 400.0 mg/kg/injection, schedule: Q01DX001 (ip), vehicle: acetone 98 % of control

Oc1ccccc1C=Nc1ccccc1S.[Co]
inactive: dose: 100.0 mg/kg/injection, schedule: Q01DX001 (ip), vehicle: other 105 % of control | dose: 200.0 mg/kg/injection, schedule: Q01DX001 (ip), vehicle: other 100 % of control | dose: 400.0 mg/kg/injection, schedule: Q01DX001 (ip), vehicle: other 105 % of control

Nc1[nH]c(=S)[nH]c(=O)c1N=Nc1c(Br)cc(S(N)(=O)=O)cc1Br
inactive: dose: 100.0 mg/kg/injection, schedule: Q01DX001 (ip), vehicle: carboxymethylcellulose (CMC) 94 % of control | dose: 200.0 mg/kg/injection, schedule: Q01DX001 (ip), vehicle: carboxymethylcellulose (CMC) 100 % of control | dose: 400.0 mg/kg/injection, schedule: Q01DX001 (ip), vehicle: carboxymethylcellulose (CMC) 103 % of control

Cc1cc(=O)[nH]c(Nc2ccccc2)n1
inactive: [1] 90 % of control | [3] 93 % of control | [5] 90 % of control

C=C(C)C1CNC(C(=O)O)C1CC(=O)O (stereo not drawn)
inactive: dose: 6.25 mg/kg/injection, schedule: Q01DX009 (ip), vehicle: saline sonified 102 % of control | dose: 12.5 mg/kg/injection, schedule: Q01DX009 (ip), vehicle: saline sonified 86 % of control

Nc1c(F)c(F)c(-c2c(F)c(F)c(N)c(F)c2F)c(F)c1F
inactive: dose: 37.5 mg/kg/injection, schedule: Q04DX003 (ip), vehicle: saline with Tween-80 98 % of control | dose: 75.0 mg/kg/injection, schedule: Q04DX003 (ip), vehicle: saline with Tween-80 102 % of control | dose: 150.0 mg/kg/injection, schedule: Q04DX003 (ip), vehicle: saline with Tween-80 95 % of control
